Like-named read-outs stand apart in the source and are kept apart here.
Molecular target: T1, recombinant human NK3 receptor (Homo sapiens, UniProt P29371)
T1 construct: expressed in transfected cells; host or cells: HEK293 cells, transient expression; membranes
T1 sequence (P29371 1-465): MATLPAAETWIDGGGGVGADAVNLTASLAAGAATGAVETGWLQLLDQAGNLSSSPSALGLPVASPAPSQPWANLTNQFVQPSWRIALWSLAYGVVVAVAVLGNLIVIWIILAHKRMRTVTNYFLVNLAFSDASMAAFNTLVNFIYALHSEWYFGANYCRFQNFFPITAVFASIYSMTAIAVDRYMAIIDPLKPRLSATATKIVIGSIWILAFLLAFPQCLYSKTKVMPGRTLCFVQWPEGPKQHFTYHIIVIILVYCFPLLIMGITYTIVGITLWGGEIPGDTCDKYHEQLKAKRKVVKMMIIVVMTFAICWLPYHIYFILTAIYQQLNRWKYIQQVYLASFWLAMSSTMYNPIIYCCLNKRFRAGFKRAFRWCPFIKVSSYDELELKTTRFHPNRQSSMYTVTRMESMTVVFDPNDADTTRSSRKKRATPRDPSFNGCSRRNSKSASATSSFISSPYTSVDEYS
Assay: [3H]SR142801 competition binding assay

[1] = hNK-3 receptor affinity, membranes from HEK293 cells transiently expressing recombinant human NK3 receptor, [3H]SR142801, Cheng-Prussoff, read-out: Data Ki

| Ki [1] | SMILES | Ki |
| --- | --- | --- |
| 0.7 nM | CN(C(=O)O[C@H]1CC[C@@H](C(F)(F)F)CC1)[C@@H]1CN(C(=O)C2CCN(C(=O)C3(C)CC3)CC2)C[C@H]1c1ccc(Cl)c(Cl)c1 [Example 108, {(3S,4R)-4-(3,4-Dichloro-phenyl)-1-[1-(1-methyl-cyclopropanecarbonyl)-piperidine-4-carbonyl]-pyrrolidin-3-yl}-methyl-carbamic acid 4-trifluoromethyl-cyclohexyl ester] | – |
| – | CN(C(=O)Oc1ccc(F)cc1)[C@@H]1CN(C(=O)C2CCN(C3CCS(=O)(=O)CC3)CC2)C[C@H]1c1ccc(Cl)cc1 [Example 109, {(3S,4R)-4-(4-Chloro-phenyl)-1-[1-(1,1-dioxo-hexahydro-1λ^6-thiopyran-4-yl)-piperidine-4-carbonyl]-pyrrolidin-3-yl}-methyl-carbamic acid 4-fluoro-phenyl ester] | 0.2 nM |
| – | CN(C(=O)Oc1ccc(F)cc1)[C@@H]1CN(C(=O)C2CCN(c3ccc(Cl)nn3)CC2)C[C@H]1c1ccc(Cl)cc1 [Example 110, {(3S,4R)-4-(4-Chloro-phenyl)-1-[1-(6-chloro-pyridazin-3-yl)-piperidine-4-carbonyl]-pyrrolidin-3-yl}-methyl-carbamic acid 4-fluoro-phenyl ester] | 0.3 nM |
| – | CN(C(=O)Oc1ccc(F)cc1)[C@@H]1CN(C(=O)C2CCN(C3CCOCC3)CC2)C[C@H]1c1ccc(Cl)cc1 [Example 112, {(3S,4R)-4-(4-Chloro-phenyl)-1-[1-(tetrahydro-pyran-4-yl)-piperidine-4-carbonyl]-pyrrolidin-3-yl}-methyl-carbamic acid 4-fluoro-phenyl ester] | 3.7 nM |
| – | CN(C(=O)Oc1ccc(F)c(Br)c1)[C@@H]1CN(C(=O)C2CCN(C(=O)C3(C)CC3)CC2)C[C@H]1c1ccc(Cl)c(Cl)c1 [Example 113, {(3S,4R)-4-(3,4-Dichloro-phenyl)-1-[1-(1-methyl-cyclopropanecarbonyl)-piperidine-4-carbonyl]-pyrrolidin-3-yl}-methyl-carbamic acid 3-bromo-4-fluoro-phenyl ester] | 0.3 nM |
| – | CN(C(=O)Oc1ccc(F)cc1)[C@@H]1CN(C(=O)CCN2CCOCC2)C[C@H]1c1ccc(Cl)cc1 [Example 114, [(3S,4R)-4-(4-Chloro-phenyl)-1-(3-morpholin-4-yl-propionyl)-pyrrolidin-3-yl]-methyl-carbamic acid 4-fluoro-phenyl ester] | 83 nM |
| – | CN(C(=O)Oc1ccc(F)cc1)[C@@H]1CN(C(=O)C2CCN(C3CCS(=O)(=O)C3)CC2)C[C@H]1c1ccc(Cl)cc1 (stereo partly drawn) [Example 115, {(3S,4R)-4-(4-Chloro-phenyl)-1-[1-(1,1-dioxo-tetrahydro-1λ^6-thiophen-3-yl)-piperidine-4-carbonyl]-pyrrolidin-3-yl}-methyl-carbamic acid 4-fluoro-phenyl ester] | 1.3 nM |
| – | CN(C(=O)Oc1ccc(F)cc1)[C@@H]1CN(C(=O)C2CCC(CO)CC2)C[C@H]1c1ccc(Cl)cc1 (stereo partly drawn) [Example 116, [(3S,4R)-4-(4-Chloro-phenyl)-1-(4-hydroxymethyl-cyclohexanecarbonyl)-pyrrolidin-3-yl]-methyl-carbamic acid 4-fluoro-phenyl ester] | 10 nM |
| – | CN(C(=O)Oc1ccc(F)cc1)[C@@H]1CN(C(=O)C2CCC(F)(F)CC2)C[C@H]1c1ccc(Cl)cc1 [Example 117, [(3S,4R)-4-(4-Chloro-phenyl)-1-(4,4-difluoro-cyclohexanecarbonyl)-pyrrolidin-3-yl]-methyl-carbamic acid 4-fluoro-phenyl ester] | 17.4 nM |
| – | Cc1ccc(N2CCC(C(=O)N3C[C@@H](N(C)C(=O)Oc4ccc(F)cc4)[C@H](c4ccc(Cl)cc4)C3)CC2)nn1 [Example 118, {(3S,4R)-4-(4-Chloro-phenyl)-1-[1-(6-methyl-pyridazin-3-yl)-piperidine-4-carbonyl]-pyrrolidin-3-yl}-methyl-carbamic acid 4-fluoro-phenyl ester] | 0.3 nM |
| – | CN(C(=O)Oc1ccc(F)cc1)[C@H]1CN(C(=O)C2CCN(c3ccc(C#N)cn3)CC2)C[C@@H]1c1ccc(Cl)cc1 [Example 122, [(3R,4S)-4-(4-Chloro-phenyl)-1-(5′-cyano-3,4,5,6-tetrahydro-2H-[1,2′]bipyridinyl-4-carbonyl)-pyrrolidin-3-yl]-methyl-carbamic acid 4-fluoro-phenyl ester] | 19 nM |
| 50.9 nM | CN(C(=O)O[C@H]1CC[C@H](C(F)(F)F)CC1)[C@H]1CN(C(=O)C2CCN(c3ccc(C#N)cn3)CC2)C[C@@H]1c1ccc(Cl)cc1 [Example 125, [(3R,4S)-4-(4-Chloro-phenyl)-1-(5′-cyano-3,4,5,6-tetrahydro-2H-[1,2′]bipyridinyl-4-carbonyl)-pyrrolidin-3-yl]-methyl-carbamic acid 4-trifluoromethyl-cyclohexyl ester] | – |
| 1.2 nM | CN(C(=O)O[C@H]1CC[C@H](C(F)(F)F)CC1)[C@@H]1CN(C(=O)C2CCN(c3ccc(C#N)cn3)CC2)C[C@H]1c1ccc(Cl)cc1 [Example 126, [(3S,4R)-4-(4-Chloro-phenyl)-1-(5′-cyano-3,4,5,6-tetrahydro-2H-[1,2′]bipyridinyl-4-carbonyl)-pyrrolidin-3-yl]-methyl-carbamic acid 4-trifluoromethyl-cyclohexyl ester] | – |
| – | CN(C(=O)OCCCC(F)(F)F)[C@@H]1CN(C(=O)C2CCN(c3ccc(C#N)cn3)CC2)C[C@H]1c1ccc(Cl)cc1 [Example 127, [(3S,4R)-4-(4-Chloro-phenyl)-1-(5′-cyano-3,4,5,6-tetrahydro-2H-[1,2′]bipyridinyl-4-carbonyl)-pyrrolidin-3-yl]-methyl-carbamic acid 4,4,4-trifluoro-butyl ester] | 4 nM |
| – | CN(C(=O)OCCCC(F)(F)F)[C@H]1CN(C(=O)C2CCN(c3ccc(C#N)cn3)CC2)C[C@@H]1c1ccc(Cl)cc1 [Example 128, [(3R,4S)-4-(4-Chloro-phenyl)-1-(5′-cyano-3,4,5,6-tetrahydro-2H-[1,2′]bipyridinyl-4-carbonyl)-pyrrolidin-3-yl]-methyl-carbamic acid 4,4,4-trifluoro-butyl ester] | 68 nM |
| – | CN(C(=O)Oc1ccc(F)cc1)[C@@H]1CN(C(=O)C2CCN(C(=O)C3(C)CC3)CC2)C[C@H]1c1ccc(F)cc1 [Example 129, {(3S,4R)-4-(4-Fluoro-phenyl)-1-[1-(1-methyl-cyclopropanecarbonyl)-piperidine-4-carbonyl]-pyrrolidin-3-yl}-methyl-carbamic acid 4-fluoro-phenyl ester] | 13.7 nM |
| – | CN(C(=O)Oc1ccc(F)cc1)[C@@H]1CN(C(=O)C2CCN(c3ccc(C#N)cn3)CC2)C[C@H]1c1ccc(F)cc1 [Example 131, [(3S,4R)-1-(5′-Cyano-3,4,5,6-tetrahydro-2H-[1,2′]bipyridinyl-4-carbonyl)-4-(4-fluoro-phenyl)-pyrrolidin-3-yl]-methyl-carbamic acid 4-fluoro-phenyl ester] | 1 nM |
| – | CN(C(=O)Oc1ccc(F)cc1)[C@H]1CN(C(=O)C2CCN(c3ccc(C#N)cn3)CC2)C[C@@H]1c1ccc(F)cc1 [Example 132, [(3R,4S)-1-(5′-Cyano-3,4,5,6-tetrahydro-2H-[1,2′]bipyridinyl-4-carbonyl)-4-(4-fluoro-phenyl)-pyrrolidin-3-yl]-methyl-carbamic acid 4-fluoro-phenyl ester] | 55.6 nM |
| – | CN(C(=O)Oc1ccc(F)cc1)[C@@H]1CN(C(=O)C2CCN(C(=O)OC(C)(C)C)CC2)C[C@H]1c1ccc(Cl)cc1 [Example 133, 4-{(3R,4S)-3-(4-Chloro-phenyl)-4-[(4-fluoro-phenoxycarbonyl)-methyl-amino]-pyrrolidine-1-carbonyl}-piperidine-1-carboxylic acid tert-butyl ester] | 3 nM |
| – | Cc1nnc(N2CCC(C(=O)N3C[C@@H](N(C)C(=O)Oc4ccc(F)cc4)[C@H](c4ccc(Cl)cc4)C3)CC2)o1 [Example 134, {(3S,4R)-4-(4-Chloro-phenyl)-1-[1-(5-methyl-[1,3,4]oxadiazol-2-yl)-piperidine-4-carbonyl]-pyrrolidin-3-yl}-methyl-carbamic acid 4-fluoro-phenyl ester] | 3.6 nM |
| – | CN(C(=O)Oc1ccc(F)cc1)[C@@H]1CN(C(=O)C2CCNCC2)C[C@H]1c1ccc(Cl)cc1 [Example 135, [(3S,4R)-4-(4-Chloro-phenyl)-1-(piperidine-4-carbonyl)-pyrrolidin-3-yl]-methyl-carbamic acid 4-fluoro-phenyl ester] | 40.3 nM |
| – | CCCOC(=O)N(C)[C@@H]1CN(C(=O)C2CCN(c3ccc(C#N)cn3)CC2)C[C@H]1c1ccc(Cl)cc1 [Example 138, [(3S,4R)-4-(4-Chloro-phenyl)-1-(5′-cyano-3,4,5,6-tetrahydro-2H-[1,2′]bipyridinyl-4-carbonyl)-pyrrolidin-3-yl]-methyl-carbamic acid propyl ester] | 37.1 nM |
| – | CC(C)COC(=O)N(C)[C@@H]1CN(C(=O)C2CCN(c3ccc(C#N)cn3)CC2)C[C@H]1c1ccc(Cl)cc1 [Example 139, [(3S,4R)-4-(4-Chloro-phenyl)-1-(5′-cyano-3,4,5,6-tetrahydro-2H-[1,2′]bipyridinyl-4-carbonyl)-pyrrolidin-3-yl]-methyl-carbamic acid isobutyl ester] | 3.9 nM |
| – | CN(C(=O)Oc1ccc(F)cc1)[C@@H]1CN(C(=O)C2CCN(c3ccc(C#N)nn3)CC2)C[C@H]1c1ccc(Cl)cc1 [Example 140, {(3S,4R)-4-(4-Chloro-phenyl)-1-[1-(6-cyano-pyridazin-3-yl)-piperidine-4-carbonyl]-pyrrolidin-3-yl}-methyl-carbamic acid 4-fluoro-phenyl ester] | 0.9 nM |

Source: patent publication US9226916B2, “Pyrrolidine derivatives” (HOFFMANN-LA ROCHE INC., priority 2009, dated 2016)
